# Biological target: 1,3-beta-glucan synthase (Candida albicans)
# Assay: In vitro inhibition of 1,3-beta-glucan synthase in Candida albicans membrane assay.
row,SMILES,IC50 [nM]
1,CCC(C)CC(C)CCCCCCCCC(=O)N[C@@H]1C[C@@H](O)[C@@H](O)NC(=O)[C@@H]2[C@@H](O)CCN2C(=O)[C@H]([C@@H](O)CC(N)=O)NC(=O)[C@H]([C@@H](O)[C@H](O)c2ccc(O)c([N+](=O)[O-])c2)NC(=O)[C@@H]2C[C@@H](O)CN2C(=O)[C@H]([C@@H](C)O)NC1=O (some centres undefined) [Pneumocandin analogue],2900
2,CCCc1cc(C[C@H](O)[C@@H]2NC(=O)[C@@H]3C[C@@H](O)CN3C(=O)[C@H]([C@@H](C)O)NC(=O)[C@H](NC(=O)CCCCCCCCC(C)CC(C)CC)C[C@@H](O)CNC(=O)[C@@H]3[C@@H](O)CCN3C(=O)[C@H]([C@@H](O)CC(N)=O)NC2=O)ccc1O (some centres undefined) [Pneumocandin analogue],600
3,CCC(C)CC(C)CCCCCCCCC(=O)N[C@@H]1C[C@@H](O)CNC(=O)[C@@H]2[C@@H](O)CCN2C(=O)[C@H]([C@@H](O)CC(N)=O)NC(=O)[C@H]([C@@H](O)Cc2ccc(O)c(/C=C/C(=O)OC)c2)NC(=O)[C@@H]2C[C@@H](O)CN2C(=O)[C@H]([C@@H](C)O)NC1=O (some centres undefined) [Pneumocandin analogue],150
4,CCC(C)CC(C)CCCCCCCCC(=O)N[C@@H]1C[C@@H](O)[C@@H](O)NC(=O)[C@@H]2[C@@H](O)CCN2C(=O)[C@H]([C@@H](O)CC(N)=O)NC(=O)[C@H]([C@@H](O)[C@H](O)c2cc(I)c(O)c(I)c2)NC(=O)[C@@H]2C[C@@H](O)CN2C(=O)[C@H]([C@@H](C)O)NC1=O (some centres undefined) [Pneumocandin analogue],> 10000
5,CCC(C)CC(C)CCCCCCCCC(=O)N[C@@H]1C[C@@H](O)CNC(=O)[C@@H]2[C@@H](O)CCN2C(=O)[C@H]([C@@H](O)CC(N)=O)NC(=O)[C@H]([C@@H](O)Cc2ccc(O)c([N+](=O)[O-])c2)NC(=O)[C@@H]2C[C@@H](O)CN2C(=O)[C@H]([C@@H](C)O)NC1=O (some centres undefined) [Pneumocandin analogue],4000
6,CCC(C)CC(C)CCCCCCCCC(=O)N[C@@H]1C[C@@H](O)[C@@H](O)NC(=O)[C@@H]2[C@@H](O)CCN2C(=O)[C@H]([C@@H](O)CC(N)=O)NC(=O)[C@H]([C@@H](O)[C@H](O)c2ccc(O)c(NC(=O)CCC(=O)O)c2)NC(=O)[C@@H]2C[C@@H](O)CN2C(=O)[C@H]([C@@H](C)O)NC1=O (some centres undefined) [Pneumocandin analogue],150
7,CCC(C)CC(C)CCCCCCCCC(=O)N[C@@H]1C[C@@H](O)CNC(=O)[C@@H]2[C@@H](O)CCN2C(=O)[C@H]([C@@H](O)CC(N)=O)NC(=O)[C@H]([C@@H](O)Cc2ccc(O)c(C(=O)OC)c2)NC(=O)[C@@H]2C[C@@H](O)CN2C(=O)[C@H]([C@@H](C)O)NC1=O (some centres undefined) [Pneumocandin analogue],3000
8,CCC(C)CC(C)CCCCCCCCC(=O)N[C@@H]1C[C@@H](O)CNC(=O)[C@@H]2[C@@H](O)CCN2C(=O)[C@H]([C@@H](O)CC(N)=O)NC(=O)[C@H]([C@@H](O)Cc2ccc(O)c(C=O)c2)NC(=O)[C@@H]2C[C@@H](O)CN2C(=O)[C@H]([C@@H](C)O)NC1=O (some centres undefined) [Pneumocandin analogue],> 5000
9,CCC(C)CC(C)CCCCCCCCC(=O)N[C@@H]1C[C@@H](O)CNC(=O)[C@@H]2[C@@H](O)CCN2C(=O)[C@H]([C@@H](O)CC(N)=O)NC(=O)[C@H]([C@@H](O)Cc2ccc(O)c(I)c2)NC(=O)[C@@H]2C[C@@H](O)CN2C(=O)[C@H]([C@@H](C)O)NC1=O (some centres undefined) [Pneumocandin analogue],100
10,CCc1cc(C[C@H](O)[C@@H]2NC(=O)[C@@H]3C[C@@H](O)CN3C(=O)[C@H]([C@@H](C)O)NC(=O)[C@H](NC(=O)CCCCCCCCC(C)CC(C)CC)C[C@@H](O)CNC(=O)[C@@H]3[C@@H](O)CCN3C(=O)[C@H]([C@@H](O)CC(N)=O)NC2=O)ccc1O (some centres undefined) [Pneumocandin analogue],260
11,CCC(C)CC(C)CCCCCCCCC(=O)N[C@@H]1C[C@@H](O)CNC(=O)[C@@H]2[C@@H](O)CCN2C(=O)[C@H]([C@@H](O)CC(N)=O)NC(=O)[C@H]([C@@H](O)Cc2ccc(O)c(CCN)c2)NC(=O)[C@@H]2C[C@@H](O)CN2C(=O)[C@H]([C@@H](C)O)NC1=O (some centres undefined) [Pneumocandin analogue],200
12,CCC(C)CC(C)CCCCCCCCC(=O)N[C@@H]1C[C@@H](O)[C@@H](O)NC(=O)[C@@H]2[C@@H](O)CCN2C(=O)[C@H]([C@@H](O)CC(N)=O)NC(=O)[C@H]([C@@H](O)[C@H](O)c2ccc(O)c(I)c2)NC(=O)[C@@H]2C[C@@H](O)CN2C(=O)[C@H]([C@@H](C)O)NC1=O (some centres undefined) [Pneumocandin analogue],100

# These reach a lower IC50. Values come first.
row,IC50 [nM],SMILES
1,70,CCC(C)CC(C)CCCCCCCCC(=O)N[C@@H]1C[C@@H](O)[C@@H](O)NC(=O)[C@@H]2[C@@H](O)CCN2C(=O)[C@H]([C@@H](O)CC(N)=O)NC(=O)[C@H]([C@@H](O)[C@H](O)c2ccc(O)c(NC(=O)CCN)c2)NC(=O)[C@@H]2C[C@@H](O)CN2C(=O)[C@H]([C@@H](C)O)NC1=O (some centres undefined) [Pneumocandin analogue]
2,70,CCC(C)CC(C)CCCCCCCCC(=O)N[C@@H]1C[C@@H](O)CNC(=O)[C@@H]2[C@@H](O)CCN2C(=O)[C@H]([C@@H](O)CC(N)=O)NC(=O)[C@H]([C@@H](O)Cc2ccc(O)cc2)NC(=O)[C@@H]2C[C@@H](O)CN2C(=O)[C@H]([C@@H](C)O)NC1=O (some centres undefined) [Pneumocandin analogue]
3,35,CCC(C)CC(C)CCCCCCCCC(=O)N[C@@H]1C[C@@H](O)[C@@H](O)NC(=O)[C@@H]2[C@@H](O)CCN2C(=O)[C@H]([C@@H](O)CC(N)=O)NC(=O)[C@H]([C@@H](O)[C@H](O)c2ccc(O)c(NC(=O)CN)c2)NC(=O)[C@@H]2C[C@@H](O)CN2C(=O)[C@H]([C@@H](C)O)NC1=O (some centres undefined) [Pneumocandin analogue]
4,40,CCC(C)CC(C)CCCCCCCCC(=O)N[C@@H]1C[C@@H](O)[C@@H](O)NC(=O)[C@@H]2[C@@H](O)CCN2C(=O)[C@H]([C@@H](O)CC(N)=O)NC(=O)[C@H]([C@@H](O)[C@H](O)c2ccc(O)c(N)c2)NC(=O)[C@@H]2C[C@@H](O)CN2C(=O)[C@H]([C@@H](C)O)NC1=O (some centres undefined) [Pneumocandin analogue]
5,80,C=Cc1cc(C[C@H](O)[C@@H]2NC(=O)[C@@H]3C[C@@H](O)CN3C(=O)[C@H]([C@@H](C)O)NC(=O)[C@H](NC(=O)CCCCCCCCC(C)CC(C)CC)C[C@@H](O)CNC(=O)[C@@H]3[C@@H](O)CCN3C(=O)[C@H]([C@@H](O)CC(N)=O)NC2=O)ccc1O (some centres undefined) [Pneumocandin analogue]
6,50,CCC(C)CC(C)CCCCCCCCC(=O)N[C@@H]1C[C@@H](O)CNC(=O)[C@@H]2[C@@H](O)CCN2C(=O)[C@H]([C@@H](O)CC(N)=O)NC(=O)[C@H]([C@@H](O)Cc2ccc(O)c(N)c2)NC(=O)[C@@H]2C[C@@H](O)CN2C(=O)[C@H]([C@@H](C)O)NC1=O (some centres undefined) [Pneumocandin analogue]
7,60,CCC(C)CC(C)CCCCCCCCC(=O)N[C@@H]1C[C@@H](O)CNC(=O)[C@@H]2[C@@H](O)CCN2C(=O)[C@H]([C@@H](O)CC(N)=O)NC(=O)[C@H]([C@@H](O)Cc2ccc(O)c(CCO)c2)NC(=O)[C@@H]2C[C@@H](O)CN2C(=O)[C@H]([C@@H](C)O)NC1=O (some centres undefined) [Pneumocandin analogue]

# Source: BindingDB's records for doi:10.1016/S0960-894X(97)10107-X (1997)
